One data set addresses T1, Mrs2 (Mus musculus, UniProt Q5NCE8).
T1 construct: endogenous in cells; host or cells: primary murine hepatocytes (C57BL/6J mice)
T1 sequence (Q5NCE8 54-434): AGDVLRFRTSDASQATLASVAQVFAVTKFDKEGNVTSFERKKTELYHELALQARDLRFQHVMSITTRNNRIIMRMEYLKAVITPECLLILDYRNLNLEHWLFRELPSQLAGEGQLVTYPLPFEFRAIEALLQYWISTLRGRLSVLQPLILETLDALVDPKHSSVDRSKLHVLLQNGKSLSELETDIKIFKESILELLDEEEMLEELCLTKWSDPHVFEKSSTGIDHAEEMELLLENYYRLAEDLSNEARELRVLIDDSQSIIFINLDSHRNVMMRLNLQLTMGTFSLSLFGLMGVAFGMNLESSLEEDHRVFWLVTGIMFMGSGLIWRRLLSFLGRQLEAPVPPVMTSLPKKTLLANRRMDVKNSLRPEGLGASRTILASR
Put plainly: Mrs2 inhibition in intact hepatocytes loaded with Mag-Green-AM, confocal, L-lactate stimulation. It is filed as cell-based, murine. The note with it: 5 μM. The protocol:
Bacterial CorA forms a pentameric complex that selectively drives Mg2+ uptake in an electrogenic manner. […] Mrs2 is the eukaryotic homologue of CorA and contains two transmembrane domains with a well-conserved F/Y-G-M-N motif; therefore, CorA blockers were tested to determine if they alter Mrs2-mediated mMg^2+ uptake (Moomaw and Maguire, 2008). Digitonin permeabilized hepatocytes were utilized to measure the inhibitory effect and determine its IC50. Permeabilized cells were treated with CPACC followed by a 1 mM bolus of MgCl2 (FIG. 10B). A 1 mM Mg^2+ bolus was added after baseline recording, and the extramitochondrial Mg^2+ clearance was used as a read-out for Mrs2-mediated mMg^2+ uptake using Mag-Green as a Mg^2+ indicator. […] We next investigated Mrs2 inhibition in intact hepatocytes loaded with Mag-Green-AM. […] Next CPACC was examined to determine if it had any effect on MCU-mediated mCa^2+ uptake in permeabilized cells. […] The availability of the compound to intact cells was measured using graphite furnace atomic absorption spectroscopy (GFAAS) and bicinchoninic acid in parallel. […] Encouraged by the potent inhibitory effect of CPACC and cellular permeability, we next measured the cytotoxicity of CPACC in cells. […]
Evaluation of dose dependent Mrs2 inhibition by confocal live cell imaging system. […] Data was quantified using Leica Application Suite X.

The next data set deals with Bacterial CorA (Salmonella typhimurium, UniProt P0A2R8). The note with it: Kucharski et al., 2000, read-out: IC50 for CorA inhibition; cited from earlier work.
Bacterial CorA, sequence (P0A2R8 whole entry): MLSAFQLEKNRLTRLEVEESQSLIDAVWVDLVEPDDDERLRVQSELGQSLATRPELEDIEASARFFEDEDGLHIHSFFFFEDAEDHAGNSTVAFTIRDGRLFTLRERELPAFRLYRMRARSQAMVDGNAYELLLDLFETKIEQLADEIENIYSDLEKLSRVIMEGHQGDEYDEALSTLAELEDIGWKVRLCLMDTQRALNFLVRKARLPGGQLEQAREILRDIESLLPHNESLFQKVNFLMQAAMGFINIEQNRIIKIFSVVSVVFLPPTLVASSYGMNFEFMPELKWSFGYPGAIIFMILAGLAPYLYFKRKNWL
The nature of data set [1]: HFD-fed WT mice treated with CPACC i.p. It is filed as in vivo. How it is done: CPACC treatment enhances adipose browning and lowers whole body weight. Given the potent mMg^2+ uptake inhibiting properties and low toxicity of CPACC, we hypothesized that CPACC could mimic Mrs2^−/− cellular phenotype. WT hepatocytes isolated from over 12 months old mice were treated with 50 μM CPACC for 48 hours. Control and CPACC treated hepatocytes were stained with BODIPY and TMRE for intracellular tracing using confocal imaging. […] Next it was determined if CPACC treatment affects the mitochondrial oxygen consumption rate. Freshly isolated WT hepatocytes were treated with 5-25 μM concentrations of CPACC for 16 hours before measurement of oxygen consumption rate. […] Since it was observed an enhancement of basal OCR in CPACC treated hepatocytes, the extracellular acidification rate was measured in control and CPACC treated hepatocytes and found it to be higher in the CPACC condition indicating higher glycolytic activity (FIG. 11G). Having observed that pharmacologic blockade of Mrs2 by CPACC reduced lipid droplet size and enhanced mitochondrial function, it was asked whether in vivo administration of CPACC lowers body weight gain. 12 weeks HFD-fed WT mice were treated with CPACC (20 mg/kg) via intraperitoneal injection every three days over 6 weeks. […] Because it was observed browning/beiging in Mrs2^−/− iWAT, UCP1 expression by RT-qPCR was tested, confirming induction in the iWAT of CPACC treated mice.
Animal models. Wild-type (WT) and Mrs2^−/− (KO) C57BL/6J mice were housed and maintained in our animal breeding facility with prior approval and accordance with the Institutional Animal Care and Use Committee (IACUC). Mice were fed a Western Diet (WD; Research Diets D09100310), a standard Chow Diet (CD; Envigo 7012), or a High Fat Diet (HFD; Research Diets D12492). For most experiments, WT and KO mice were maintained on the WD or the CD starting at 12 weeks of age. With termination at 12 months. WT mice maintained on a HFD starting at 6 weeks were administered control (saline) or CPACC (20 mg/kg BW in saline) I.P. every 3 days starting after 6 weeks of maintained diet. Body weight, health, and food were measured regularly for all groups. […]
Plasma alanine transaminase activity and citrate measurements. Liver function and damage was determined by measuring alanine transaminase (ALT). The ALT activity in the plasma was determined using the Alanine Transaminase Activity Assay Kit (Abcam ab105134) following manufacturer's protocol. The plasma ALT levels over two different time points were obtained and corresponding ALT activity was determined by reading in a plate reader at 570 nm. […] Citrate levels were determined using the Citrate Assay Kit (Abcam ab83396) by reading in a plate reader at 570 nm following the manufacturer's protocol. […]

As to `[NH2][Co]([NH2])([NH2])([NH2])([NH2])[Cl]` [CPACC, chloropentaammine cobalt (III) chloride], the “Mitochondrial Mg^2+ uptake following L-lactate stimulation” value on Mrs2 is given as “significantly inhibited”. In addition, the IC50 (as a rule, the concentration needed to halve the response being measured) on Bacterial CorA is around 100 µM. Further, the “RT-qPCR analysis of WAT tissue (HIF-1α pathway)” value in data set [1] (HFD mice, 20 mg/kg i.p.) is “transcriptional signature of HIF-1α activation”. For the same molecule, in data set [1] (HFD-fed WT mice, 20 mg/kg i.p.), the “UCP1 expression in iWAT by RT-qPCR” value is “induction”. The body weight gain result in data set [1] (HFD-fed WT mice, 20 mg/kg i.p. every three days over 6 weeks) is given as “restricted body weight gain”. In addition, in data set [1] (HFD-fed WT mice, 20 mg/kg i.p., versus control group), the “Plasma ALT levels” value is given as “lower”.

Source of the values: patent US20240415878A1, “Compositions and Methods for Modulating Mitochondrial Function” (Board of Regents, The University of Texas System, priority 2021, published 2024).
